Measurements reported in patent US20250026748A1, “N-(5-SUBSTITUTED-[(1,3,4-THIADIAZOLYL) OR (THIAZOLYL)])(SUBSTITUTED)CARBOXAMIDE COMPOUNDS AND USE THEREOF FOR INHIBITING HUMAN POLYMERASE THETA” (Repare Therapeutics Inc., priority 2021, published 2025).

Target: Polθ ATPase enzyme (1-894) (Homo sapiens (Human), UniProt O75417)
Experiment: Polθ ATPase enzymatic assay (3 nM enzyme concentration), ADP-Glo
Format: biochemical
Conditions: not given
Experimental: Polθ ATPase enzyme (1-894) at 3 nM is incubated with a 10-point concentration response of inhibitors for 15 min at rt in the following buffer: 50 mM Tris Cl pH 7.5, 10% glycerol, 5 mM DTT, 10 mM MgCl2, 0.1 mg/ml BSA. Following pre-incubation with inhibitors, DNA (Fork C) at 20 nM and ATP at 100 μM are added to start the reaction. Enzymatic reaction proceeds at rt for 60 min. ATP consumption is measured using the ADP-Glo assay from Promega. Luminescence is read on the Envision and IC50 are determined using the variable slope 4-parameters equation.
DNA (Fork C) is made by annealing 3 different oligos containing the following sequence of nucleotides:
Oligos are annealed by heating at 95° C. for 5 min in the following buffer (10 mM Tris-HCl pH7.5, 50 mM NaCl, 1 mM EDTA) and cooled to rt. […]

Polθ ATPase enzyme (1-894), sequence (O75417 1-894): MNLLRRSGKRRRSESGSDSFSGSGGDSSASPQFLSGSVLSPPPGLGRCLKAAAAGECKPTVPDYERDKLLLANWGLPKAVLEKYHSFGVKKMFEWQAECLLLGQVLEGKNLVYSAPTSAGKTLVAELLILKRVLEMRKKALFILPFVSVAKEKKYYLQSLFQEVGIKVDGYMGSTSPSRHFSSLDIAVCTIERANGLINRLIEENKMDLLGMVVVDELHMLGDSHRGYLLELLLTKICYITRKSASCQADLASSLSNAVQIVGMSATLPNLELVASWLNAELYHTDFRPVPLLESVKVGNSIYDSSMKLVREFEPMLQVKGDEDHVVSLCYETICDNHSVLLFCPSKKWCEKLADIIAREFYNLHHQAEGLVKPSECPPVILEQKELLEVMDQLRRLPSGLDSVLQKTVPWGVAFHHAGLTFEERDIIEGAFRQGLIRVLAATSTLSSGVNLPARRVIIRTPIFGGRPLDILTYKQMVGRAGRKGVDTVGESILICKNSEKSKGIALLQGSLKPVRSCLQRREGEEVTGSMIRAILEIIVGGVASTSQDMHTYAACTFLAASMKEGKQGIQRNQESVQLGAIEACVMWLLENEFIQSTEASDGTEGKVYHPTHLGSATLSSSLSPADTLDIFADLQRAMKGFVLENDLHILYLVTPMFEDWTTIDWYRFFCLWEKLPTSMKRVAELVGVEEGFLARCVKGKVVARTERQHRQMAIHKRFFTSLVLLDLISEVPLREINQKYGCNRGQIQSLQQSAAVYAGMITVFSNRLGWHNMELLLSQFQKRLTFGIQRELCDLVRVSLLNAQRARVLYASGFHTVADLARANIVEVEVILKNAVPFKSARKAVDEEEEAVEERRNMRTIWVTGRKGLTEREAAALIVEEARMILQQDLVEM

IC50	SMILES
3.3 nM	COc1ccc(C#N)cc1-c1cnccc1C(=O)Nc1nnc(C2C[C@H]2c2ccc(C#N)cc2)s1 (mixture of isomers) [Compound 2, N-(5-((1R,2R)-2-(4-cyanophenyl)cyclopropyl)-1,3,4-thiadiazol-2-yl)-3-(5-cyano-2-methoxyphenyl)isonicotinamide]

Same assay, conditions: read-out: IC50 (nM) [PolQ] 3 nM; average IC50; 3 nM PolQ ATPase enzyme (1-894)

IC50	SMILES
5.8 nM	COc1ccc(F)cc1-c1cnccc1C(=O)Nc1nnc([C@@H]2C[C@H]2c2ccc(C#N)cc2)s1 [Compound 1, N-(5-((1R,2R)-2-(4-cyanophenyl)cyclopropyl)-1,3,4-thiadiazol-2-yl)-3-(5-fluoro-2-methoxyphenyl)isonicotinamide]
23 nM	COc1ccc(F)cc1-c1cnccc1C(=O)Nc1nnc([C@@H]2C[C@H]2c2ccn(C)n2)s1 [Compound 3, 3-(5-fluoro-2-methoxyphenyl)-N-(5-((1R,2R)-2-(1-methyl-1H-pyrazol-3-yl)cyclopropyl)-1,3,4-thiadiazol-2-yl)isonicotinamide]
92 nM	COc1ccc(F)cc1-c1cnccc1C(=O)Nc1nnc([C@@H]2C[C@H]2c2nc3ccccc3n2C)s1 [Compound 4, 3-(5-fluoro-2-methoxyphenyl)-N-(5-((1R,2R)-2-(1-methyl-1H-benzo[d]imidazol-2-yl)cyclopropyl)-1,3,4-thiadiazol-2-yl)isonicotinamide]
2.9 nM	COc1ccc(C#N)cc1-c1cnccc1C(=O)Nc1nnc(C#CC2CCC2)s1 [Compound 5]
2 nM	COc1ccc(C#N)cc1-c1cnccc1C(=O)Nc1nnc(C#CC2CC23CC3)s1 (stereo not drawn) [Compound 6, 3-(5-cyano-2-methoxyphenyl)-N-(5-(spiro[2.2]pentan-1-ylethynyl)-1,3,4-thiadiazol-2-yl)isonicotinamide]
12 nM	COc1ccc(C#N)cc1-c1cnccc1C(=O)Nc1nnc(C#CC2COC2)s1 [Compound 7, 3-(5-cyano-2-methoxyphenyl)-N-(5-(oxetan-3-ylethynyl)-1,3,4-thiadiazol-2-yl)isonicotinamide]
48 nM	COc1ccc(F)cc1-c1cnccc1C(=O)Nc1nnc(C#Cc2cnn(CC#N)c2)s1 [Compound 8, N-(5-((1-(cyanomethyl)-1H-pyrazol-4-yl)ethynyl)-1,3,4-thiadiazol-2-yl)-3-(5-fluoro-2-methoxyphenyl)isonicotinamide]
33 nM	COc1ccc(C#N)cc1-c1cnccc1C(=O)Nc1nnc(C#CC2(N)CC2)s1 [Compound 9]
54 nM	COc1ccc(F)cc1-c1cnccc1C(=O)Nc1nnc(C#Cc2cnc(C#N)c(OC)c2)s1 [Compound 10]
117 nM	COc1ccc(F)cc1-c1cnccc1C(=O)Nc1nnc(C#Cc2ccc3nccn3n2)s1 [Compound 11]
2 nM	COc1ccc(C#N)cc1-c1cnccc1C(=O)Nc1nnc(C#CC2CC2)s1 [Compound 12, 3-(5-cyano-2-methoxyphenyl)-N-(5-(cyclopropylethynyl)-1,3,4-thiadiazol-2-yl)isonicotinamide]
6.9 nM	COc1c(F)cccc1-c1cnccc1C(=O)Nc1nnc(C#CC2CC2)s1 [Compound 13]
139 nM	COc1ccc(F)cc1-c1cnccc1C(=O)Nc1nnc(C#Cc2cnc3cnccn23)s1 [Compound 14]
15 nM	COc1ccc(C#N)cc1-c1cn(C)c(=O)cc1C(=O)Nc1nnc(C2C[C@H]2c2ccc(C#N)cc2)s1 (stereo partly drawn) [Compound 15]
204 nM	COc1ccc(F)cc1-c1cn(C)c(=O)cc1C(=O)Nc1nnc(C#Cc2cnn(C3CCCNC3)c2)s1 (stereo not drawn) [Compound 18]
27 nM	COc1ccc(F)cc1-c1cn(C)c(=O)cc1C(=O)Nc1nnc(C#Cc2ccn(C)n2)s1 [Compound 19]
21 nM	COc1ccc(C#N)cc1-c1cn(C)c(=O)cc1C(=O)Nc1nnc(C#CC2CC2)s1 [Compound 20]
12 nM	COc1ccc(F)cc1-c1cn(C)c(=O)cc1C(=O)Nc1nnc(C#CC2CC2)s1 [Compound 21]
12 nM	COc1ccc(F)cc1-n1cncc1C(=O)Nc1nnc(C#CC2CC2)s1 [Compound 22]
134 nM	COc1ccc(C#N)cc1-n1cncc1C(=O)Nc1nnc(C#CC2CC2)s1 [Compound 23]

Target: PolQ ATPase enzyme (1-894) (Homo sapiens (Human), UniProt O75417)
Sequence (O75417 1-894): as above
Experiment: Polθ ATPase enzymatic assay (0.5 nM enzyme concentration), ADP-Glo
Format: biochemical
Conditions: average IC50; 0.5 nM PolQ ATPase enzyme (1-894)
Procedure, shortened: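 Enzyme (0.5 nM) pre-incubated 15 min at rt with 10-point inhibitor series in 50 mM Tris pH 7.5, 10% glycerol, 5 mM DTT, 10 mM MgCl2, 0.1 mg/ml BSA; reaction started with 20 nM fork DNA and 100 μM ATP, run 180 min at rt. ADP-Glo luminescence; IC50 from 4-parameter variable-slope fit.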

SMILES	IC50
COc1ccc(C#N)cc1-c1cnccc1C(=O)Nc1nnc(C2C[C@H]2c2ccc(C#N)cc2)s1 (mixture of isomers) [Compound 2, N-(5-((1R,2R)-2-(4-cyanophenyl)cyclopropyl)-1,3,4-thiadiazol-2-yl)-3-(5-cyano-2-methoxyphenyl)isonicotinamide]	2.2 nM
COc1ccc(F)cc1-c1cnccc1C(=O)Nc1nnc([C@@H]2C[C@H]2c2ccc(C#N)cc2)s1 [Compound 1, N-(5-((1R,2R)-2-(4-cyanophenyl)cyclopropyl)-1,3,4-thiadiazol-2-yl)-3-(5-fluoro-2-methoxyphenyl)isonicotinamide]	1.1 nM
COc1ccc(C#N)cc1-c1cnccc1C(=O)Nc1nnc(C#CC2CCC2)s1 [Compound 5]	1.5 nM
COc1ccc(C#N)cc1-c1cnccc1C(=O)Nc1nnc(C#CC2CC23CC3)s1 (stereo not drawn) [Compound 6, 3-(5-cyano-2-methoxyphenyl)-N-(5-(spiro[2.2]pentan-1-ylethynyl)-1,3,4-thiadiazol-2-yl)isonicotinamide]	0.63 nM
COc1ccc(C#N)cc1-c1cnccc1C(=O)Nc1nnc(C#CC2CC2)s1 [Compound 12, 3-(5-cyano-2-methoxyphenyl)-N-(5-(cyclopropylethynyl)-1,3,4-thiadiazol-2-yl)isonicotinamide]	3.5 nM
COc1c(F)cccc1-c1cnccc1C(=O)Nc1nnc(C#CC2CC2)s1 [Compound 13]	4.2 nM
COc1cnc(C(F)F)cc1-c1cc(N2CCCN(C)CC2=O)ncc1C(=O)Nc1nnc(C#CC2CC2)s1 [Compound 441]	0.43 nM
COc1cnc(C(F)F)cc1-c1cc(-c2cc(C)n(C)n2)ncc1C(=O)Nc1nnc(C#CC2CC2)s1 [Compound 450]	0.48 nM
COc1cnc(C(F)F)cc1-c1cc(-n2cc(N)c(C)cc2=O)ncc1C(=O)Nc1nnc(C#CC2CC2)s1 [Compound 454]	1.1 nM
COc1cnc(C(F)F)cc1-c1cc(-c2ccn(C)n2)c(F)cc1C(=O)Nc1nnc(C#CC2CC2)s1 [Compound 457]	0.37 nM
COc1cnc(C(F)F)cc1-c1cc(N2CCN(C)C3(CC3)C2=O)ncc1C(=O)Nc1ncc(C#CC2CC2)s1 [Compound 465]	0.27 nM
COc1cnc(C(F)F)cc1-c1cc(-n2ccc(C)c(F)c2=O)ncc1C(=O)Nc1nnc(C#CC2CC2)s1 [Compound 466]	< 0.25 nM
COc1cnc(C(F)F)cc1-c1cc(-n2ccc(C)c(C)c2=O)ncc1C(=O)Nc1nnc(C#CC2CC2)s1 [Compound 467]	< 0.25 nM
COc1cnc(C(F)F)cc1-c1cc(N2CC(=O)N(C)C3(CC3)C2=O)ncc1C(=O)Nc1nnc(C#CC2CC2)s1 [Compound 469]	< 0.25 nM
COc1cnc(C(F)F)cc1-c1cc(N2CC(C)(C)N(C)CC2=O)ncc1C(=O)Nc1nnc(C#CC2CC2)s1 [Compound 471]	2.1 nM

Next, values leading:

IC50	SMILES
< 0.25 nM	COc1cnc(C(F)F)cc1-c1cc(-n2cccc(C)c2=O)ncc1C(=O)Nc1nnc(C#CC2CC2)s1 [Compound 437]
< 0.25 nM	COc1cnc(C(F)F)cc1-c1cc(-n2cccc(OC)c2=O)ncc1C(=O)Nc1nnc(C#CC2CC2)s1 [Compound 438]
< 0.25 nM	COc1cnc(C(F)F)cc1-c1cc(-n2ccc3occc3c2=O)ncc1C(=O)Nc1nnc(C#CC2CC2)s1 [Compound 439]
< 0.25 nM	COc1cnc(C(F)F)cc1-c1cc(-n2cc(C)ccc2=O)ncc1C(=O)Nc1nnc(C#CC2CC2)s1 [Compound 440]
< 0.25 nM	COc1cnc(C(F)F)cc1-c1cc(N2CCCC(C)(C)C2=O)ncc1C(=O)Nc1nnc(C#CC2CC2)s1 [Compound 442]
< 0.25 nM	COc1cnc(C(F)F)cc1-c1cc(N2CCC3CCC3C2=O)ncc1C(=O)Nc1nnc(C#CC2CC2)s1 (stereo not drawn) [Compound 443]
< 0.25 nM	COc1cnc(C(F)F)cc1-c1cc(N2CCC(C(C)(C)C)CC2=O)ncc1C(=O)Nc1nnc(C#CC2CC2)s1 (stereo not drawn) [Compound 444]
< 0.25 nM	COc1cnc(C(F)F)cc1-c1cc(-n2ccc(C(F)(F)F)cc2=O)ncc1C(=O)Nc1nnc(C#CC2CC2)s1 [Compound 445]
< 0.25 nM	COc1cnc(C(F)F)cc1-c1cc(CC(=O)N2CC(F)(F)C2)ncc1C(=O)Nc1nnc(C#CC2CC2)s1 [Compound 446]
< 0.25 nM	COc1cnc(C(F)F)cc1-c1cc(CC(=O)N2CC(F)(F)C2)ncc1C(=O)Nc1ncc(C#CC2CC2)s1 [Compound 447]
< 0.25 nM	Cc1ccn(-c2cc(-c3cc(C(F)F)ncc3Cl)c(C(=O)Nc3nnc(C#CC4CC4)s3)cn2)c(=O)c1 [Compound 448]
< 0.25 nM	COc1cnc(C(F)F)cc1-c1cc(-n2cccc(F)c2=O)ncc1C(=O)Nc1nnc(C#CC2CC2)s1 [Compound 449]
< 0.25 nM	COc1cnc(C(F)F)cc1-c1cc(-n2cnc(C)c(C)c2=O)ncc1C(=O)Nc1nnc(C#CC2CC2)s1 [Compound 451]
< 0.25 nM	COc1cnc(C(F)F)cc1-c1cc(-n2ncc(OC)c(Cl)c2=O)ncc1C(=O)Nc1nnc(C#CC2CC2)s1 [Compound 452]
< 0.25 nM	COc1cnc(C(F)F)cc1-c1cc(-n2nccc(C)c2=O)ncc1C(=O)Nc1nnc(C#CC2CC2)s1 [Compound 453]
< 0.25 nM	COc1cnc(C(F)F)cc1-c1cc(-n2cccc(Cl)c2=O)ncc1C(=O)Nc1nnc(C#CC2CC2)s1 [Compound 455]
< 0.25 nM	COc1cnc(C(F)F)cc1-c1cc(-n2cccc(C(F)(F)F)c2=O)ncc1C(=O)Nc1nnc(C#CC2CC2)s1 [Compound 456]
0.1 nM	COc1cnc(C(F)F)cc1-c1cc(-n2ccnc(C)c2=O)ncc1C(=O)Nc1nnc(C#CC2CC2)s1 [Compound 458]
< 0.25 nM	COc1cnc(C(F)F)cc1-c1cc(-n2ccc(Cl)cc2=O)ncc1C(=O)Nc1nnc(C#CC2CC2)s1 [Compound 459]
< 0.25 nM	COc1cnc(C(F)F)cc1-c1cc(-n2c(F)cccc2=O)ncc1C(=O)Nc1nnc(C#CC2CC2)s1 [Compound 461]
< 0.25 nM	COc1cnc(C(F)F)cc1-c1cc(-n2nc3c(cc2=O)CCC3)ncc1C(=O)Nc1nnc(C#CC2CC2)s1 [Compound 462]
< 0.25 nM	O=C(Nc1nnc(C#CC2CC2)s1)c1cnc(-n2ncccc2=O)cc1-c1cc(C(F)F)ncc1Cl [Compound 463]
< 0.25 nM	Cc1nnc(-n2cc(-c3cc(C(F)(F)F)ccc3Cl)c(C(=O)Nc3ncc(C#CC4CC4)s3)cc2=O)o1 [Compound 464]
0.0492 nM	Cc1cnn(-c2cc(-c3cc(C(F)F)ncc3Cl)c(C(=O)Nc3nnc(C#CC4CC4)s3)cn2)c(=O)c1 [Compound 470]
